Measured values published in patent publication US10640506B2, “Cyclobutyl substituted pyrrolopyridine and pyrrolopyrimidines derivatives as JAK inhibitors” (Incyte Corporation, priority 2010, dated 2020).

What was measured:
JAK2 (a.a. 828-1132) = biological target: T1, JAK2 (a.a. 828-1132) (Homo sapiens, UniProt O60674); test: In vitro JAK kinase assay (HTRF, phosphorylation of biotinylated peptide), JAK2; format: biochemical; conditions: Table F; 1 mM ATP
T1 construct: JAK2 (a.a. 828-1132); His tag (N)
T1 sequence (O60674 828-1132): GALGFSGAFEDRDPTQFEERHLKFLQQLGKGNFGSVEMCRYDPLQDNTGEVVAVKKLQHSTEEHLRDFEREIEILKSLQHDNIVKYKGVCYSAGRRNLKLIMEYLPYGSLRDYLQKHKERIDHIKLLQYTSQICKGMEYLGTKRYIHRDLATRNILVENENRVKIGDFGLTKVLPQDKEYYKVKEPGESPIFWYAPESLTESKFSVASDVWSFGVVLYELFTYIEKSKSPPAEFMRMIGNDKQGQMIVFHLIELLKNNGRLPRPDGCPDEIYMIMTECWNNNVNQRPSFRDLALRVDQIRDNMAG
Procedure, shortened: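 HTRF detection (Eu-Py20, SA-APC, 40 min) of biotinylated-peptide phosphorylation, following a 1 hour room-temperature reaction quenched with 45 mM EDTA. Enzymes: insect-cell-expressed N-terminal His-tagged JAK1 (837-1142) and JAK2 (828-1132) catalytic domains. Activities reported in ranged categories.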

[1] = biological target: human JAK1 (a.a. 837-1142) (Homo sapiens, UniProt P23458); test: In vitro JAK kinase assay (HTRF, phosphorylation of biotinylated peptide), JAK1; format: biochemical; conditions: Table F; 1 mM ATP
Sequence of human JAK1 (a.a. 837-1142) (P23458 849-1154): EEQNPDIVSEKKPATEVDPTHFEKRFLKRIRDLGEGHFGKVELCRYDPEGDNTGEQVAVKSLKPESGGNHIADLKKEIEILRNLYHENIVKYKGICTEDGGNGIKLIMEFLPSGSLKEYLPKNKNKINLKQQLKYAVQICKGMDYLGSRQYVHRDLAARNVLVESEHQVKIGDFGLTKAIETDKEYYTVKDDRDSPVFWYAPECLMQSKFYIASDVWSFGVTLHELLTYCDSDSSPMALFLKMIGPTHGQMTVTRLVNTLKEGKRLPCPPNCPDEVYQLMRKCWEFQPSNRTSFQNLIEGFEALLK
Procedure, shortened: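 Phosphorylation of a biotinylated peptide was run at room temperature for 1 hour using the N-terminally His-tagged JAK1 kinase domain (837-1142) from insect cells. After an EDTA stop, Eu-Py20 and SA-APC gave an HTRF read; values are binned potency ranges.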

IC50 (JAK2 (a.a. 828-1132)) [nM]	IC50 [1] [nM]	Compound
> 100	< 10	CC[C@H](NC(=O)N1CCN([C@H]2C[C@](CC#N)(n3cc(-c4ncnc5[nH]ccc45)cn3)C2)CC1)C(F)(F)F [Example 115, 4-{trans-3-(cyanomethyl)-3-[4-(7H-pyrrolo[2,3-d]pyrimidin-4-yl)-1H-pyrazol-1-yl]cyclobutyl}-N-[(1S)-1-(trifluoromethyl)propyl]piperazine-1-carboxamide]
> 100	25 to 100	N#CC[C@]1(n2cc(-c3ncnc4[nH]ccc34)cn2)C[C@H](N2CCN(C(=O)N3CCC[C@H]3C(F)(F)F)CC2)C1 [Example 117, [trans-1-[4-(7H-pyrrolo[2,3-d]pyrimidin-4-yl)-1H-pyrazol-1-yl]-3-(4-{[(2S)-2-(trifluoromethyl)pyrrolidin-1-yl]carbonyl}piperazin-1-yl)cyclobutyl]acetonitrile]
25 to 100	10 to 25	CN(C)/C(=N\C#N)N1CCN([C@H]2C[C@](CC#N)(n3cc(-c4ncnc5[nH]ccc45)cn3)C2)CC1 [Example 118, N′-cyano-4-{trans-3-(cyanomethyl)-3-[4-(7H-pyrrolo[2,3-d]pyrimidin-4-yl)-1H-pyrazol-1-yl]cyclobutyl}-N,N-dimethylpiperazine-1-carboximidamide]
10 to 25	< 10	CS(=O)(=O)N1CCN([C@H]2C[C@](CC#N)(n3cc(-c4ncnc5[nH]ccc45)cn3)C2)CC1 [Example 119, {trans-3-[4-(methylsulfonyl)piperazin-1-yl]-1-[4-(7H-pyrrolo[2,3-d]pyrimidin-4-yl)-1H-pyrazol-1-yl]cyclobutyl}acetonitrile]

More lines, now with the values behind:

Compound	IC50 (JAK2 (a.a. 828-1132)) [nM]	IC50 [1] [nM]
C[C@H](NC(=O)N1CCN([C@H]2C[C@](CC#N)(n3cc(-c4ncnc5[nH]ccc45)cn3)C2)CC1)C(F)(F)F [Example 114, 4-{trans-3-(cyanomethyl)-3-[4-(7H-pyrrolo[2,3-d]pyrimidin-4-yl)-1H-pyrazol-1-yl]cyclobutyl}-N-[(1S)-2,2,2-trifluoro-1-methylethyl]piperazine-1-carboxamide]	> 100	< 10
N#CC[C@]1(n2cc(-c3ncnc4[nH]ccc34)cn2)C[C@H](N2CCN(C(=O)N3CCC[C@@H]3C(F)(F)F)CC2)C1 [Example 116, [trans-1-[4-(7H-pyrrolo[2,3-d]pyrimidin-4-yl)-1H-pyrazol-1-yl]-3-(4-{[(2R)-2-(trifluoromethyl)pyrrolidin-1-yl]carbonyl}piperazin-1-yl)cyclobutyl]acetonitrile]	> 100	25 to 100
CC(C)OC(=O)N1CCN([C@H]2C[C@](CC#N)(n3cc(-c4ncnc5[nH]ccc45)cn3)C2)CC1 [Example 120, isopropyl 4-{trans-3-(cyanomethyl)-3-[4-(7H-pyrrolo[2,3-d]pyrimidin-4-yl)-1H-pyrazol-1-yl]cyclobutyl}piperazine-1-carboxylate]	25 to 100	< 10
CC(C)(C)NCc1cc(OC2CCN([C@H]3C[C@](CC#N)(n4cc(-c5ncnc6[nH]ccc56)cn4)C3)CC2)nc(C(F)(F)F)c1 [Example 127, {trans-3-(4-{[4-[(tert-butylamino)methyl]-6-(trifluoromethyl)pyridin-2-yl]oxy}piperidin-1-yl)-1-[4-(7H-pyrrolo[2,3-d]pyrimidin-4-yl)-1H-pyrazol-1-yl]cyclobutyl}acetonitrile]	25 to 100	< 10
CC(C)(C)NCc1cc(OC2CCN([C@H]3C[C@@](CC#N)(n4cc(-c5ncnc6[nH]ccc56)cn4)C3)CC2)nc(C(F)(F)F)c1 [Example 128, {cis-3-(4-{[4-[(tert-butylamino)methyl]-6-(trifluoromethyl)pyridin-2-yl]oxy}piperidin-1-yl)-1-[4-(7H-pyrrolo[2,3-d]pyrimidin-4-yl)-1H-pyrazol-1-yl]cyclobutyl}acetonitrile]	> 100	25 to 100
